{"source": "patent US20150293109A1", "about": "“Fluorescent Chemical Dye for Visualization of Neural Stem Cell Symmetric and Asymmetric Division” (NATIONAL UNIVERSITY OF SINGAPORE, priority 2012, published 2015)", "type_in_all_cases": "cell-based, mouse", "key": {"neurospheres [1]": {"tested_on": "neurospheres", "assay": "Differentiation potential of neurospheres generated from CDy5bright and CDy5dim cells", "conditions": "mean±SD of duplicates", "method": "Single neurospheres were plated onto glass coverslips coated with laminin and poly-L-lysine and cultured in bFGF/EGF-depleted neurosphere culture medium containing 5% fetal bovine serum. The differentiated cells were fixed with 4% paraformaldehyde and stained using primary antibodies: Tuj1 (Covance), glial fibrillary acidic protein (GFAP) (Dako), and O4 (Millipore), and appropriate secondary antibodies: Alexa Fluor 488 goat anti-mouse, Alexa Fluor 594 goat anti-mouse and Alexa Fluor 647 donkey anti-rabbit (Life Technologies), respectively. Tuj1 was used as a marker for neurons, GFAP was used as a marker for astrocytes and 04 was used as a marker for oligodendrocytes.\nWhen the neurospheres were randomly differentiated in a medium containing only FBS, and immunostained against astrocyte, neuron and oligodendrocyte markers as described above, more numbers of neurospheres generated from CDy5^bright cells differentiated into all three types of cells than those from CDy5^dim cells. The CDy5^bright cells differentiated into 30±4% uni-potent cells, 26±1 bi-potent cells and 44±3 tri-potent cells. The CDy5^dim cells differentiated into 47±6 uni-potent cells, 22±1 bi-potent cells and 31±7 tri-potent cells. Data represent mean±standard deviation (SD) of duplicates."}, "neurosphere cells": {"tested_on": "neurosphere cells", "assay": "Neurosphere assay of FACS-sorted CDy5bright and CDy5dim cells", "conditions": "FACS-sorted cells, 3,000 cells per well, six days of culture", "method": "The method of detecting a stem cell in a sample can further comprise distinguishing between a neural stem cell and a differentiated neural cell in the sample. For example, when a mouse neurosphere was treated with CDy5, cytoplasmic staining of a distinct cell population within the neurosphere was observed (FIG. 1). The so-called CDy5^bright cells, those visible in the right panel of FIG. 1, emitted a signal that was substantially greater than the signal emitted by the so-called CDy5^dim cells. […] In the experiment described above, a cell was considered to be a CDy5^dim cell if no signal could be detected by fluorescence microscopy, or the signal detected was not substantially greater than background signal.\nDissociated neurosphere cells were cultured in a complete neurosphere culture medium containing 2 μM CDy5 for six days. They were dissociated for single cell imaging, live cell time-lapse imaging and clonal neurosphere imaging. […]\nTo examine the relationship between stemness and CDy5 staining, CDy5^bright and CDy5^dim neurosphere cells were sorted and collected by FACS and separately resuspended in neurosphere culture medium and plated in triplicate in […] culture plates at a density of 3,000 cells per well. […] After six days of culture, the number of neurospheres was counted manually under a microscope."}, "[2]": {"tested_on": "dissociated neurosphere cells", "assay": "Cytotoxicity assay: number of neurospheres grown in the presence of CDy5", "conditions": "for number of neurospheres: vehicle control 189±40", "method": "(§1) To assess the effects of CDy5 and AC inhibitors on neurosphere formation, dissociated neurosphere cells were plated in 12-well culture plates at a density of 1,000 cells per well and cultures in the presence of 2 μM or 4 μM CDy5 or 0.01 to 10 μM AC inhibitor. For vehicle control, DMSO was added to a volume of 0.1%. The IC50 values were calculated using GraphPad Prism software.\n(§2) Whether CDy5 exerts adverse effects on proliferation and differentiation of neural stem cells was also assessed using a neurosphere assay and multipotency test. For cytotoxicity assay, dissociated neurosphere cells were plated in triplicate in 6-well culture plates at a density of 1,000 cells per well and cultured in the presence of 2 μM or 4 μM CDy5. For vehicle control, 0.1% DMSO was added. After six days, the number of neurospheres was determined."}, "neurospheres [3]": {"tested_on": "neurospheres", "assay": "Multipotency test of neurospheres generated in the presence of CDy5", "conditions": "neurospheres generated in the presence of CDy5, differentiated in 5% FBS", "method": "as §2\nThe single neurospheres generated in the presence of CDy5 and normal medium were then plated onto glass coverslips coated with laminin and poly-L-lysine, cultured in medium containing 5% fetal bovine serum and allowed to undergo differentiation. The differentiated cells were immunostained using antibodies raised against markers of astrocyte, neuron and oligodendrocyte to classify the neurospheres into uni-, bi- and tri-potent depending on the number of positively stained cell types. The control group contained 55±6% unipotent neurospheres, 29±3% bipotent neurospheres and 16±3% tripotent neurospheres. The CDy5 group contained 49±1% unipotent neurospheres, 31±4% bipotent neurospheres and 20±3% tripotent neurospheres. These are very similar ratios of differentiation potential of neurospheres between control and CDy5 groups."}, "[4]": {"tested_on": "dissociated neurosphere cells", "assay": "Neurosphere formation in the presence of AC inhibitors", "conditions": "1,000 cells per well, 0.01 to 10 μM AC inhibitor, neurospheres counted, read-out: IC50 of inhibition of neurosphere formation", "method": "Mouse brains harvested from E14.5 fetuses were digested with 0.25% trypsin/1mM EDTA solution for 30 minutes at 37° C. The tissues were triturated sequentially with a 10-mL pipette, a 1-mL pipette and a 0.2-mL pipette in medium containing 10% fetal bovine serum (FBS). The dissociated cells were washed 3 times with PBS by repeated resuspension and centrifugation, and filtered through a 40-μm strainer. The obtained single cells were plated in DMEM/F12 medium containing 10 ng/mL bFGF, 20 ng/mL EGF and B27 without vitamin A, and cultured for 7-10 days without changing the medium.\nas §1\nCeranib-2 was developed as a ceramidase inhibitor by screening ˜50,000 small molecules and chemical optimization of a lead compound. It inhibits cancer cell growth in vivo as well as in vitro (21)."}, "neurospheres [5]": {"tested_on": "neurospheres", "assay": "Dye retention in stained neurospheres after paraformaldehyde fixation and methanol extraction", "conditions": "4% paraformaldehyde fixation followed by absolute methanol", "excerpt": "To determine if CDy5 forms a covalent bond with a protein, neurospheres stained with CDy5 and Hoechst 33342 were fixed using 4% paraformaldehyde followed by absolute methanol, which extracts organic dyes bound to their targets by noncovalent bonding. Both CDy5 and Hoechst signals were detected when observed after fixation with paraformaldehyde."}, "[6]": {"conditions": "neurospheres from CDy5bright cells"}, "[7]": {"conditions": "neurospheres from CDy5dim cells"}}, "note": "Read-outs that look alike come from different tables or passages of the source.", "data": [{"smiles": "CN(CCNC(=O)CCl)c1ccc2c(-c3cccc(CN4CCOCC4)c3)c3ccc(=N)cc-3oc2c1", "note": "[CDy5]", "values": [{"measurement": "bi-potent", "setting": "neurospheres [1]; [6]", "value": "26±1", "unit": "%"}, {"measurement": "tri-potent", "setting": "neurospheres [1]; [6]", "value": "44±3", "unit": "%"}, {"measurement": "uni-potent", "setting": "neurospheres [1]; [6]", "value": "30±4", "unit": "%"}, {"measurement": "bi-potent", "setting": "neurospheres [1]; [7]", "value": "22±1", "unit": "%"}, {"measurement": "tri-potent", "setting": "neurospheres [1]; [7]", "value": "31±7", "unit": "%"}, {"measurement": "uni-potent", "setting": "neurospheres [1]; [7]", "value": "47±6", "unit": "%"}, {"measurement": "times more neurospheres from CDy5bright cells than from CDy5dim cells", "setting": "neurosphere cells", "value": "more than 10 times"}, {"measurement": "number of neurospheres compared to vehicle-added control group", "setting": "[2]; 2 μM and 4 μM CDy5, six days of culture", "value": "not significantly different"}, {"measurement": "number of neurospheres", "setting": "[2]; medium containing 2 μM CDy5", "value": "229±72"}, {"measurement": "number of neurospheres", "setting": "[2]; medium containing 4 μM CDy5", "value": "228±83"}, {"measurement": "tripotent neurospheres", "setting": "neurospheres [3]; control 16±3%", "value": "20±3", "unit": "%"}, {"measurement": "bipotent neurospheres", "setting": "neurospheres [3]; control 29±3%", "value": "31±4", "unit": "%"}, {"measurement": "unipotent neurospheres", "setting": "neurospheres [3]; control 55±6%", "value": "49±1", "unit": "%"}]}, {"smiles": "CCCCCCNC(=O)n1cc(F)c(=O)[nH]c1=O", "note": "[Carmofur]", "values": [{"measurement": "IC50", "setting": "[4]; Mus musculus", "value": 920, "unit": "nM"}]}, {"smiles": "COc1ccc(/C=C/C(=O)c2c(-c3ccccc3)c3ccccc3[nH]c2=O)cc1", "note": "[Ceranib-2]", "values": [{"measurement": "IC50", "setting": "[4]", "value": 780, "unit": "nM"}]}, {"smiles": "CCOc1ccc(-c2nc3ccc(-c4nc5ccc(N6CCN(C)CC6)cc5[nH]4)cc3[nH]2)cc1", "note": "[Hoechst 33342]", "values": [{"measurement": "dye signal following methanol treatment", "setting": "neurospheres [5]", "value": "almost completely washed out"}]}]}
